Series [1] is described as follows: Clearance and half-life after intravenous application in rats. As to conditions: female rats, i.v. bolus 0.3-0.5 mg/kg. Type of series: in vivo, rat. The method, then: Determination of Clearance and Half-Life after Intravenous Application in Rats
The in-vivo clearance and half-life of the test substances were determined in female rats with a body weight of approx. 200-250 g. For this, the test substances (in cassette testing, up to 3 different substances per animal) were applied in dissolved form at a dose of 0.3-0.5 mg/kg as a bolus with a volume of 2 ml/kg intravenously (i.v.) in the caudal vein, using compatible solubilizers such as PEG400 and/or ethanol in a compatible amount. Blood samples of approx. 0.2 mL were taken from a polyurethane catheter in the vena jugularis at the time points 2 min, 8 min, 15 min, 30 min, 45 min, 1 h, 2 h, 4 h, 6 h, 8 h, 24 h. The blood samples were kept in lithium-heparin tubes (Monovetten® from Sarstedt) without shaking, and were centrifuged for 15 min at 3000 rpm. A 100 μL aliquot was taken from the supernatant (plasma) and was precipitated by adding 400 μL of cold methanol. The precipitated samples were frozen out overnight at −20° C., then centrifuged once again for 15 min at 3000 rpm before 150 μL of the clear supernatant was taken for the determination of concentration. Analysis was carried out with an Agilent 1200 HPLC system connected to LCMS/MS detection.
Calculation of the pK Parameters (Via Non-Linear Regression by pK Calculation Software): […]

Series [2] addresses T1, human progesterone receptor B (Homo sapiens, UniProt P06401).
T1 construct: expressed in transfected cells; host or cells: SK-N-MC human neuroblastoma cells, stably transfected
T1 sequence (P06401 1-933): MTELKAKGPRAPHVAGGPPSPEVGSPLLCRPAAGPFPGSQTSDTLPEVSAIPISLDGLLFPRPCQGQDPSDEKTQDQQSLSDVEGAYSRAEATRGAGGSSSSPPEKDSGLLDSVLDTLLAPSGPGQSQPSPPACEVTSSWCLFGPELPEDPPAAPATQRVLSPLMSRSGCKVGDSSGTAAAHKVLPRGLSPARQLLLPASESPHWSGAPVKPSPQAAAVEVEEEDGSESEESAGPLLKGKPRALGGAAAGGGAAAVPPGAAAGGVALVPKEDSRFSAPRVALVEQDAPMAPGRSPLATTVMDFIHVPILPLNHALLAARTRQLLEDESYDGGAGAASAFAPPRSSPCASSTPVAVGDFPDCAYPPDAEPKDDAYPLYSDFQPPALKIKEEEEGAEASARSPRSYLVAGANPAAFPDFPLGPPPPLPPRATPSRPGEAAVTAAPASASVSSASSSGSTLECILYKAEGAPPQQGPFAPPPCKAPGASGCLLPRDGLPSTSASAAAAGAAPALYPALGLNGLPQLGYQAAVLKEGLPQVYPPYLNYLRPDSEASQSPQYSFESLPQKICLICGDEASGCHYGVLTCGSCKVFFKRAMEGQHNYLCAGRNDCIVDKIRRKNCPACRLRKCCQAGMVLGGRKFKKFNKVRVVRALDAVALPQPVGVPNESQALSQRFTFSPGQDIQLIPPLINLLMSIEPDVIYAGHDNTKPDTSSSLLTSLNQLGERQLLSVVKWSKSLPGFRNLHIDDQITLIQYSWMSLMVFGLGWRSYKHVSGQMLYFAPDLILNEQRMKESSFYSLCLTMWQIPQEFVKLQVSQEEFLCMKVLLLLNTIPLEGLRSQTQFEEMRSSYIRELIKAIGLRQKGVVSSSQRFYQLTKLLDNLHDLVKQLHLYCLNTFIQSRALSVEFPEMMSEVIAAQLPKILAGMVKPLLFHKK
Description: Progesterone-receptor-antagonistic action in stably transfected SK-N-MC cells, MTV-LUC reporter (PR-B). Type of series: cell-based. Conditions: antagonistic potency vs 0.1 nmol/l promegestone, 24 hours, luciferase. The method, then:
Progesterone-Receptor-Antagonistic Action in Stable Transfectants of Human Neuroblastoma Cells (SK-N-MC Cells) with the Human Progesterone A or Progesterone B Receptor and an MTV-LUC Reporter Construct
SK-N-MC cells (human neuroblastoma cells) that have been stably transfected with plasmids that express the human progesterone receptor B (pRChPR-B-neo) or the human progesterone receptor A (pRChPR-A-neo) and a reporter construct (pMMTV-LUC), were incubated for 24 hours either in the absence (negative control) or in the presence of increasing amounts of the particular test compound (0.01 nmol/l, 0.1 nmol/l, 1 nmol/l, 10 nmol/l, 100 nmol/l and 1 μmol/l), to determine the agonistic efficacy. As positive control of reporter gene induction, the cells were treated with the synthetic gestagen promegestone (0.01 nmol/l, 0.1 nmol/l, 1 nmol/l, 10 nmol/l, 100 nmol/l and 1 μmol/l). For determination of the antagonistic activity, the cells were treated with 0.1 nmol/l promegestone and additionally with increasing amounts of the particular test compound (0.01 nmol/l, 0.1 nmol/l, 1 nmol/l, 10 nmol/l, 100 nmol/l and 1 μmol/l). The activity of the reporter gene LUC (LUC=luciferase) was determined in the cell lysates and was measured as RLU (relative light units). All measured values are given as % efficacy and as EC50 or IC50 concentrations.

`C[C@]12C[C@H](c3ccc(-c4ccc(C(N)=O)cc4)cc3)C3=C4CCC(=O)C=C4CC[C@H]3[C@@H]1CC[C@@]2(O)C(F)(F)C(F)(F)F` [Example 79, 4′-[(11β,17β)-17-Hydroxy-3-oxo-17-(pentafluoroethyl)estra-4,9-dien-11-yl]biphenyl-4-carboxamide] came in with a CLblood in series [1] of 0.4 L/h/kg. For the same molecule, the half-life in series [1] (rat, plasma, iv, terminal half-life, read-out: t½ (converted)) is 9 h. In series [2], the IC50 – broadly, the midpoint of a concentration-inhibition curve – was 0.07 nM.

(Values after patent publication US9109004B2, “Progesterone receptor antagonists” (Bayer Intellectual Property GmbH, priority 2010, dated 2015).)
